Measurements reported in patent US20260138961A1, “MODULATORS OF MITOCHONDRIAL DNA REPLICATION” (Pretzel Therapeutics, Inc., priority 2022, published 2026).

Target: T1, POLγA:Y955C (Homo sapiens, UniProt P54098, Y955C)
T1 sequence (P54098 1-1239 Y955C): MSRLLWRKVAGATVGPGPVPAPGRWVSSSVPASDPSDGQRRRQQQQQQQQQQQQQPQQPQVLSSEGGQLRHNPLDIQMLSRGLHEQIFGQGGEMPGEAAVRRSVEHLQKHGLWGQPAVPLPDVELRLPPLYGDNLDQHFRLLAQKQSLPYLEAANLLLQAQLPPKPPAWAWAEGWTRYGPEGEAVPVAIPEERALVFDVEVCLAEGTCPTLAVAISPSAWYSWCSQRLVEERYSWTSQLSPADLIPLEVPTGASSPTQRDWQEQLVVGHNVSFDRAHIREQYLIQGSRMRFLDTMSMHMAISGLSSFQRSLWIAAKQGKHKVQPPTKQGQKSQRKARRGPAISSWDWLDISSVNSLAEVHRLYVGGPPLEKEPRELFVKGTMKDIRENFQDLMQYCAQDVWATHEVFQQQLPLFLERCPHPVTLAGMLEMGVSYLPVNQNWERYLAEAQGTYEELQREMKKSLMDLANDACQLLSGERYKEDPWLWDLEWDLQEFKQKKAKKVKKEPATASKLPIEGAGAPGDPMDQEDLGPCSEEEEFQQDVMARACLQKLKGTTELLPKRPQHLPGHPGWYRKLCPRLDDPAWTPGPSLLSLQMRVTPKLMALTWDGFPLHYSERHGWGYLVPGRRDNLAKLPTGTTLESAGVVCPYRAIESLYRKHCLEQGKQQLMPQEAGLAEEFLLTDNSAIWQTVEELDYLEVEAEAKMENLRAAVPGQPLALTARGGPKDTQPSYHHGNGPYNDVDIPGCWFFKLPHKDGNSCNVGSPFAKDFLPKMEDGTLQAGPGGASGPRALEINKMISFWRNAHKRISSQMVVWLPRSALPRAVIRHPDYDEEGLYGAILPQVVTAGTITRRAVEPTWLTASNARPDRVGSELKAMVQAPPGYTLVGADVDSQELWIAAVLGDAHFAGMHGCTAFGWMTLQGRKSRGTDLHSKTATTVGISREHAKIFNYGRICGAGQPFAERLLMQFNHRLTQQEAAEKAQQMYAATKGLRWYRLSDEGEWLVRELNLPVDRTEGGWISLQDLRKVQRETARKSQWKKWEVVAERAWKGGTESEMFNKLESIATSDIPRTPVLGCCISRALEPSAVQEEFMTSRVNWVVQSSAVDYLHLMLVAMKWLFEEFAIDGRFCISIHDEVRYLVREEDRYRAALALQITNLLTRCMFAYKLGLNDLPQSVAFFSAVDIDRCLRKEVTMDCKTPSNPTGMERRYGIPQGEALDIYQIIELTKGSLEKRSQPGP
T1 sequence (Q9UHN1 1-485 partner): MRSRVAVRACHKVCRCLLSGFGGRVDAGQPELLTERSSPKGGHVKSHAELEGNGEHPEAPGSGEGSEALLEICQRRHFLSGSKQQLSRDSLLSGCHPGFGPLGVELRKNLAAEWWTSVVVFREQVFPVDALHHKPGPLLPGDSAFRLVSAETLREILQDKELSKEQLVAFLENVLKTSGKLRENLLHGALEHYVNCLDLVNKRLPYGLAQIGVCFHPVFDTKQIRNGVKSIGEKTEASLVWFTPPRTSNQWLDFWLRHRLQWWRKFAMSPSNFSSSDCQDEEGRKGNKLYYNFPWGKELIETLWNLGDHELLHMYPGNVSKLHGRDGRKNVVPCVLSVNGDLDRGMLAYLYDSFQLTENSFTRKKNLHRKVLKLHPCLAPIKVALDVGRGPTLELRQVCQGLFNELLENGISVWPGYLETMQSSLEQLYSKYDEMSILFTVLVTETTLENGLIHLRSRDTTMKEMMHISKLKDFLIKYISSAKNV
Assay: DNA polymerization assay, POLγA:Y955C mutant
Type: biochemical
Conditions: stimulation of polymerase activity, primed M13mp18 ssDNA, 37° C. 2 hours
Description: DNA Polymerization Assay to Monitor Effects on Human Wildtype POLγ and Four Disease-Causing Mutant Variants of Human POLγ.
The ability of small molecules to stimulate the polymerase activity of POLγ was analyzed in a quantitative fluorescence SYBR Green I assay with fluorescence intensity (FI) readout.
In the presence of dNTPs, wild type human POLγ and mutant derivatives thereof were incubated with single-stranded, circular M13mp18 ssDNA hybridized to a short DNA oligonucleotide that functions as a primer for initiation of DNA synthesis. POLγ and mutant derivatives thereof will extend the primer and use the M13mp18 molecule as a template to synthesize long stretches of double-stranded DNA. SYBR Green I, which is a double-stranded DNA-binding dye, was used to quantify formation of double-stranded DNA in the reaction. When bound to double-stranded DNA, SYBR Green I fluorescence increases by up to 100-fold.
The assay was performed in the 384-well plate format. Upon addition of compounds, changes in double-stranded DNA synthesis activity can be monitored by following effects on fluorescent intensity.
The reactions also contained the accessory POLγB subunit, and the human mitochondrial single-stranded DNA binding protein (mtSSB).
The DNA template mixture used in the assay contained 0.5 nM primed M13 mp18 ssDNA, 400 nM mtSSB, 0.1 mM Tris-HCl (pH 8.0), 0.1 mM dNTP, 10 mM MgCl2, 0.1 mg/mL BSA, 1 mM TCEP solution, and 0.02% Triton X-100. The DNA template mixture for the wild type protein contained either 100 μM dNTP, 1 μM dNTP, or 0.1 μM dNTP, designated in Table 2 as 100 μM, 1 μM, and 0.1 μM, respectfully.
Microplates with compounds (0.1 μL in each well) to be tested in the assay were prepared from 10 mM compound stocks in 100% DMSO, and equal amounts of DMSO without any compound were added to positive and negative control wells.
The protein mixture was dispensed (5 μL into each well) into compound plates and incubated at 37° C. for 15 minutes. After incubation, 5 μL of the DNA template mixture was dispensed into each well. The plates were then incubated at 37° C. for 2 hours.
During incubation, a combined stop buffer and detection reagent solution was prepared. The buffer contained 25 mM EDTA (pH 8.0), 0.02% Triton X-100, and SYBR Green I [Invitrogen] diluted 10,000× (for fluorescent readout). EDTA will stop the enzymatic reaction by chelating magnesium ions.

Compound | AC50 [nM]
Cc1cnc(-c2cc(NS(=O)(=O)c3cc(C)c(Cl)cc3C)ccc2C)s1 [Example 103, 4-chloro-2,5-dimethyl-N-(4-methyl-3-(5-methylthiazol-2-yl)phenyl)benzenesulfonamide] | 9000
Cc1cc(S(=O)(=O)Nc2cccc(-c3nccs3)c2)c(C)cc1Cl [Example 16, 4-chloro-2,5-dimethyl-N-(3-(thiazol-2-yl)phenyl)benzenesulfonamide] | 800
Cc1cc(S(=O)(=O)Nc2ccc3c(c2)CC(=O)N3)c(C)cc1Cl [Example 185, 4-chloro-2,5-dimethyl-N-(2-oxoindolin-5-yl)benzenesulfonamide] | 2000
(R)-2,5-dimethyl-N-(3-(3-methylmorpholine-4-carbonyl)phenyl)benzenesulfonamide [Example 1] | 2000
Cc1cc(S(=O)(=O)Nc2cc(F)cc(C(=O)N3CCC[C@H]3C)c2)c(C)cc1Cl [Example 13, (R)-4-chloro-N-(3-fluoro-5-(2-methylpyrrolidine-1-carbonyl)phenyl)-2,5-dimethylbenzenesulfonamide] | 2000
Cc1cc(S(=O)(=O)Nc2cccc(-c3ncco3)c2)c(C)cc1Cl [Example 17, 4-chloro-2,5-dimethyl-N-(3-(oxazol-2-yl)phenyl)benzenesulfonamide] | 800
Cc1cc(S(=O)(=O)Nc2cccc(-c3nccn3C)c2)c(C)cc1Cl [Example 19, 4-chloro-2,5-dimethyl-N-(3-(1-methyl-1H-imidazol-2-yl)phenyl)benzenesulfonamide] | 500
Cc1cc(S(=O)(=O)Nc2cccc(-c3ncc(C#N)s3)c2)c(C)cc1Cl [Example 96, 4-chloro-N-(3-(5-cyanothiazol-2-yl)phenyl)-2,5-dimethylbenzenesulfonamide] | 50000
Cc1cc(S(=O)(=O)Nc2cccc(-c3ccn(C)n3)c2)c(C)cc1Cl [Example 18, 4-chloro-2,5-dimethyl-N-(3-(1-methyl-1H-pyrazol-3-yl)phenyl)benzenesulfonamide] | 3000
Cc1cnc(-c2ccc(C)c(NS(=O)(=O)c3cc(C)c(Cl)cc3C)c2)s1 [Example 98, 4-chloro-2,5-dimethyl-N-(2-methyl-5-(5-methylthiazol-2-yl)phenyl)benzenesulfonamide] | > 10000
Cc1cc(S(=O)(=O)Nc2cccc(C(=O)N(C)C(C)CO)c2)c(C)cc1Cl (single isomer, unassigned) [Example 14, 3-((4-chloro-2,5-dimethylphenyl)sulfonamido)-N-(1-hydroxypropan-2-yl)-N-methylbenzamide] | 2000
Cc1cnc(-c2ccc(Cl)c(NS(=O)(=O)c3cc(C)c(Cl)cc3C)c2)s1 [Example 102, 4-chloro-N-(2-chloro-5-(5-methylthiazol-2-yl)phenyl)-2,5-dimethylbenzenesulfonamide] | > 100000

Second part, the compound after the results:

AC50 [nM] | Compound
1000 | Cc1ccc(C)c(S(=O)(=O)Nc2cccc(C(=O)N3CCCCC3C#N)c2)c1 (centres unmarked) [Example 2, N-(3-(2-cyanopiperidine-1-carbonyl)phenyl)-2,5-dimethylbenzenesulfonamide]
5000 | Cc1ccc(C)c(S(=O)(=O)Nc2cccc(C(=O)N3CCCCC3)c2)c1 [Example 3, 2,5-dimethyl-N-(3-(piperidine-1-carbonyl)phenyl)benzene sulfonamide]
5000 | Cc1ccc(C)c(S(=O)(=O)Nc2cccc(C(=O)N3CCCC[C@@H]3C)c2)c1 [Example 6, (S)-2,5-dimethyl-N-(3-(2-methylpiperidine-1-carbonyl)phenyl)benzenesulfonamide]
11000 | Cc1ccc(C)c(S(=O)(=O)Nc2cccc(C(=O)NCC3CC3)c2)c1 [Example 4, N-(cyclopropylmethyl)-3-((2,5-dimethylphenyl)sulfonamido)benzamide]
3000 | Cc1ccc(C)c(S(=O)(=O)Nc2cccc(C(=O)N3CCCC[C@H]3C)c2)c1 [Example 5, (R)-2,5-dimethyl-N-(3-(2-methylpiperidine-1-carbonyl)phenyl)benzenesulfonamide]
2000 | Cc1cc(S(=O)(=O)Nc2cccc(C(=O)N(C)C)c2)c(C)cc1Cl [Example 12, 3-((4-chloro-2,5-dimethylphenyl)sulfonamido)-N,N-dimethylbenzamide]
400 | Cc1cc(S(=O)(=O)Nc2cccc(C(=O)N3CCC[C@H]3C)c2)c(C)cc1Cl [Example 10, (R)-4-chloro-2,5-dimethyl-N-(3-(2-methylpyrrolidine-1-carbonyl)phenyl)benzenesulfonamide]
2000 | Cc1cc(S(=O)(=O)Nc2cccc(C(=O)N3CCCC[C@H]3C)c2)c(C)cc1Cl [Example 9, (R)-4-chloro-2,5-dimethyl-N-(3-(2-methylpiperidine-1-carbonyl)phenyl)benzenesulfonamide]
4000 | Cc1cc(S(=O)(=O)Nc2cccc(C(=O)NCc3ccccc3)c2)c(C)cc1Cl [Example 11, N-benzyl-3-((4-chloro-2,5-dimethylphenyl)sulfonamido)benzamide]
3000 | Cc1ccc(C)c(S(=O)(=O)Nc2cccc(C(=O)N[C@@H](C)C3CC3)c2)c1 [Example 8, (S)-N-(1-cyclopropylethyl)-3-((2,5-dimethylphenyl)sulfonamido)benzamide]
1000 | Cc1ccc(C)c(S(=O)(=O)Nc2cccc(C(=O)N3CCOCC3C#N)c2)c1 (centres unmarked) [Example 7, N-(3-(3-cyanomorpholine-4-carbonyl)phenyl)-2,5-dimethylbenzenesulfonamide]
